Experimental findings from paper PMC11513893, “Discovery of Oral Degraders of the ROS1 Fusion Protein with Potent Activity against Secondary Resistance Mutations” (Journal of Medicinal Chemistry, 2024) are described below.

Each structure is given as a SMILES string.

The test system of the assay is Ba/F3 CD74-ROS1 non mutant. In words: Antiproliferation assay (Alamar Blue, 72 h). The format is cell-based, mouse. As to conditions: Mus musculus, BaF3, 72 h, Ba/F3 cells, cell growth inhibition. A general note: The colour change of resazurin is a common sign of viable cells or microbes.

By IC50 is commonly meant the point on the concentration scale where inhibition reaches its midpoint. Turning to `COc1cc(N2CCC(N3CCN(CC4CCN(c5ccc6c(c5)CN(C5CCC(=O)NC5=O)C6=O)CC4)CC3)CC2)ccc1Nc1ncc(Cl)c(Nc2ccccc2P(C)(C)=O)n1` (stereo not shown) [9o, 3-(5-(4-((4-(1-(4-((5-Chloro-4-((2-(dimethylphosphoryl)phenyl)amino)pyrimidin-2-yl)amino)-3-methoxyphenyl)piperidin-4-yl)piperazin-1-yl)methyl)piperidin-1-yl)-1-oxoisoindolin-2-yl)piperidine-2,6-dione], inhibition was half-maximal at 1.1 ± 0.3 nM (IC50).
